Measured values from patent US10160763B2, “WDR5 inhibitors and modulators” (Vanderbilt University, priority 2016, dated 2018).

The compounds below were run against WDR5 (Δ23, residues 24-334) (Homo sapiens, UniProt P61964) (assay: biochemical). Conditions: Kd (M), FPA-based binding affinity at the WDR5 WIN site; IC50 converted to Kd by modified Cheng-Prusoff equation; average of two experiments.

Kd	SMILES
1.2e-07 M	CN1CCN(c2ccc(-c3cn4c(n3)CCC4)cc2CNC(=O)Cc2ccc(Cl)c(Cl)c2)CC1 [B142]
6.77e-06 M	Cc1ccccc1-c1ccc(-c2cn3c(n2)CCC3)cc1CNC(=O)Cc1ccc(Cl)c(Cl)c1 [B145]
4.16e-07 M	O=C(Cc1ccc(Cl)c(Cl)c1)N(Cc1cc(-c2cn3c(n2)CCC3)ccc1N1CCCC1)CC1CC1 [B146]
2.22e-06 M	COc1cccc(C(=O)NCc2cc(-c3cn4c(n3)CCC4)ccc2N2CCN(C)CC2)c1 [B147, N-(5-(6,7-dihydro-5H-pyrrolo[1,2-a]imidazol-2-yl)-2-(4-methylpiperazin-1-yl)benzyl)-3-methoxybenzamide]
1.4e-08 M	CC(C)N(Cc1cc(-c2cn3c(n2)CCC3)ccc1OC1CCC1)C(=O)Cc1ccc(Cl)c(Cl)c1 [B148]
8.75e-07 M	O=C(Cc1cccc(Cl)c1Cl)NCc1cccc(-c2cn3c(n2)CCC3)c1 [B149]
1e-05 M	O=C(CC1CCNCC1)NCc1cccc(-c2cn3c(n2)CCC3)c1 [B150]
1.23e-06 M	O=C(Cc1cccnc1)NCc1cccc(-c2cn3c(n2)CCC3)c1 [B152]
6.04e-07 M	O=C(Cc1ccc2c(c1)CCO2)NCc1cccc(-c2cn3c(n2)CCC3)c1 [B153]
1e-09 M	O=C(Cc1ccc2c(c1)OCO2)NCc1cccc(-c2cn3c(n2)CCC3)c1 [B154]
1.05e-07 M	O=C(Cc1ccc(F)c(Cl)c1)NCc1cccc(-c2cn3c(n2)CCC3)c1 [B155]
6.8e-08 M	CC(=O)N1CCCC(C(=O)NCc2cc(-c3cn4c(n3)CCC4)ccc2N2CCOCC2)C1 (centres unmarked) [B156]
9.1e-08 M	COc1cccc(CCC(=O)NCc2cccc(-c3cn4c(n3)CCC4)c2)c1 [B157]
4.99e-06 M	O=C(CCc1cccc(Cl)c1)NCc1cccc(-c2cn3c(n2)CCC3)c1 [B158]
1.81e-06 M	Cc1cc(Cl)cc(C(=O)NCc2cccc(-c3cn4c(n3)CCC4)c2)c1 [B160]
1e-05 M	CC(=O)N1CCCC(C(=O)N(Cc2cc(-c3cn4c(n3)CCC4)ccc2OC2CCC2)CC2CC2)C1 (centres unmarked) [B161]
1e-05 M	Cc1ccc(-c2ccc(-c3cn4c(n3)CCC4)cc2CNC(=O)Cc2ccc(Cl)c(Cl)c2)cc1 [B163]
2.31e-07 M	CC(=O)N1CCCC(C(=O)NCc2cc(-c3cn4c(n3)CCC4)ccc2OC2CCC2)C1 (centres unmarked) [B164]
3.32e-06 M	CC1CN(c2ccc(-c3cn4c(n3)CCC4)cc2CNC(=O)Cc2ccc(Cl)c(Cl)c2)CC(C)O1 (centres unmarked) [B165]
5.8e-08 M	O=C(NCc1cccc(-c2cn3c(n2)CCC3)c1)c1ccc(F)c(F)c1 [B166]
3.8e-07 M	O=C(NCc1cccc(-c2cn3c(n2)CCC3)c1)c1cccc(Cl)c1Cl [B167]
5.75e-07 M	O=C(NCc1cccc(-c2cn3c(n2)CCC3)c1)c1cocn1 [B168]
6.68e-07 M	Cc1cnc(Cl)c(C(=O)NCc2cccc(-c3cn4c(n3)CCC4)c2)c1 [B169]
9.24e-07 M	O=C(NCc1cccc(-c2cn3c(n2)CCC3)c1)c1cnco1 [B170]
6.26e-07 M	Cc1ccc(C(=O)NCc2cccc(-c3cn4c(n3)CCC4)c2)cc1Br [B171]

Kd	SMILES
2.18e-07 M	N#Cc1cccc(C(=O)NCc2cccc(-c3cn4c(n3)CCC4)c2)c1 [B172]
1.12e-07 M	COc1cc(C(=O)NCc2cc(-c3cn4c(n3)CCC4)ccc2N2CC(C)OC(C)C2)ccc1C (centres unmarked) [B174]
5.2e-08 M	O=C(Cc1ccc(Cl)c(Cl)c1)N(Cc1cc(-c2cn3c(n2)CCC3)ccc1N1CCOCC1)CC1CC1 [B175, N-(Cyclopropylmethyl)-2-(3,4-dichlorophenyl)-N-(5-(6,7-dihydro-5H-pyrrolo[1,2-a]imidazol-2-yl)-2-morpholinobenzyl)acetamide]
6.3e-08 M	CC(=O)N1CCCC(C(=O)N(Cc2cc(-c3cn4c(n3)CCC4)ccc2N2CCOCC2)CC2CC2)C1 (centres unmarked) [B176]
2.08e-06 M	COC1CCN(c2ccc(-c3cn4c(n3)CCC4)cc2CNC(=O)Cc2ccc(Cl)c(Cl)c2)C1 (centres unmarked) [B177]
1.73e-06 M	COc1cccc(C(=O)NCc2cc(-c3cn4c(n3)CCC4)ccc2N2CCC(OC)C2)c1 (centres unmarked) [B178]
3.62e-06 M	COc1cc(C(=O)N(Cc2cc(-c3cn4c(n3)CCC4)ccc2N2CCCC2)CC2CC2)ccc1C [B179]
3.07e-07 M	COc1cccc(C(=O)NCc2cc(-c3cn4c(n3)CCC4)ccc2N2CC(C)OC(C)C2)c1 (centres unmarked) [B180]
1e-05 M	CCC(=O)N1CCCC(C(=O)NCc2cccc(-c3cn4c(n3)CCC4)c2)C1 (centres unmarked) [B181]
1.09e-06 M	CS(=O)(=O)N1CCCCC1C(=O)NCc1cccc(-c2cn3c(n2)CCC3)c1 (centres unmarked) [B182]
1.34e-06 M	CS(=O)(=O)NCc1cccc(C(=O)NCc2cccc(-c3cn4c(n3)CCC4)c2)c1 [B183]
5.8e-08 M	O=C(NCc1cccc(-c2cn3c(n2)CCC3)c1)C1CCCN(C(=O)CC(F)(F)F)C1 (centres unmarked) [B184]
1.55e-07 M	CC(C)C(=O)N1CCCC(C(=O)NCc2cccc(-c3cn4c(n3)CCC4)c2)C1 (centres unmarked) [B185]
3e-09 M	CS(=O)(=O)N1CCCC(C(=O)NCc2cccc(-c3cn4c(n3)CCC4)c2)C1 (centres unmarked) [B186]
9.47e-07 M	O=C(NCc1cccc(-c2cn3c(n2)CCC3)c1)C1CCCN(C(=O)C2CC2)C1 (centres unmarked) [B187]
3.3e-08 M	CC(=O)N1CCCCC1C(=O)NCc1cccc(-c2cn3c(n2)CCC3)c1 (centres unmarked) [B188]
7.41e-07 M	CC(=O)NCc1cccc(C(=O)NCc2cccc(-c3cn4c(n3)CCC4)c2)c1 [B189]
1.1e-08 M	CC(c1cccc(-c2cn3c(n2)CCC3)c1)N(CC1CC1)C(=O)Cc1ccc(Cl)c(Cl)c1 (centres unmarked) [B190]
1.85e-06 M	COc1cccc(C(=O)N(CC2CC2)C(C)c2cccc(-c3cn4c(n3)CCC4)c2)c1 (centres unmarked) [B191]
1.25e-07 M	CC(NC(=O)Cc1ccc(Cl)c(Cl)c1)c1cccc(-c2cn3c(n2)CCC3)c1 (centres unmarked) [B192]
3.23e-06 M	O=C(Cc1ccc(F)c(Cl)c1)NCc1cc(-c2cn3c(n2)CCC3)ccc1N1CCOCC1 [B193]
2.04e-06 M	COc1cc(C(=O)NCc2cc(-c3cn4c(n3)CCC4)ccc2N2CCOCC2)ccc1C [B194]
9.61e-07 M	O=C(NCc1cc(-c2cn3c(n2)CCC3)ccc1N1CCOCC1)c1cc(Cl)ccn1 [B195]
2.17e-06 M	O=C(Cc1ccc(F)c(Cl)c1)NCc1cc(-c2cn3c(n2)CCC3)ccc1OC1CCC1 [B197]

Continued, compound first:

SMILES	Kd
CC(C(=O)NCc1cccc(-c2cn3c(n2)CCC3)c1)c1ccccc1 (centres unmarked) [B84]	4.35e-07 M
COc1cccc(C(=O)N(Cc2cccc(-c3cn4c(n3)CCC4)c2)CC(C)C)c1 [B85]	2.85e-06 M
CCC(C)N(Cc1cccc(-c2cn3c(n2)CCC3)c1)C(=O)c1cccc(OC)c1 (centres unmarked) [B86]	4.25e-07 M
CCC(C1CC1)N(Cc1cccc(-c2cn3c(n2)CCC3)c1)C(=O)c1cccc(OC)c1 (centres unmarked) [B87]	8.63e-07 M
COc1cccc(CC(=O)NCc2cccc(-c3cn4c(n3)CCC4)c2)c1 [B88]	8.9e-07 M
COc1cccc(C(=O)N(Cc2cc(-c3cn4c(n3)CCC4)ccc2F)CC2CC2)c1 [B90]	4.24e-05 M
O=C(Cc1ccc(Cl)c(Cl)c1)N(Cc1cc(-c2cn3c(n2)CCC3)ccc1OCC1CC1)CC1CC1 [B100]	2e-07 M
O=C(Cc1ccc(Cl)c(Cl)c1)NCc1cc(-c2cn3c(n2)CCC3)ccc1N1CCCCC1 [B101]	2.75e-05 M
COc1cccc(C(=O)N(Cc2cc(-c3cn4c(n3)CCC4)ccc2N2CCCC2)CC2CC2)c1 [B102]	5.1e-07 M
COc1cccc(C(=O)NCc2cc(-c3cn4c(n3)CCC4)ccc2N2CCCCC2)c1 [B103]	1.04e-07 M
O=C(Cc1ccc(Br)cc1)NCc1cccc(-c2cn3c(n2)CCC3)c1 [B106]	1.33e-07 M
O=C(CC12C[C@H]3C[C@@H](C1)C[C@@H](C2)C3)NCc1cccc(-c2cn3c(n2)CCC3)c1 [B107]	5.6e-08 M
O=C(Cc1ccc(Cl)c(Cl)c1)NCc1cc(-c2cn3c(n2)CCC3)ccc1OC1CCCC1 [B109]	1e-05 M
CCOc1cccc(C(=O)N(C)Cc2cccc(-c3cn4c(n3)CCC4)c2)c1 [B110]	1e-09 M
O=C(Cc1ccc(Cl)c(Cl)c1)NCc1cc(-c2cn3c(n2)CCC3)ccc1-c1ccccc1 [B111]	2e-08 M
COc1cccc(C(=O)NCc2cc(-c3cn4c(n3)CCC4)ccc2N2CCCC2)c1 [B114]	4.73e-07 M
COc1cccc(C(=O)NCc2cc(-c3cn4c(n3)CCC4)ccc2OCc2ccccc2)c1 [B115]	1.3e-08 M
O=C(Cc1ccc(Cl)c(Cl)c1)NCc1cc(-c2cn3c(n2)CCC3)ccc1OCc1ccccc1 [B116]	2.76e-07 M
COc1cccc(C(=O)NCc2cc(-c3cn4c(n3)CCC4)ccc2OC2CCCC2)c1 [B117]	1e-05 M

SMILES	Kd
O=C(Cc1ccc(Cl)c(Cl)c1)NCc1cc(-c2cn3c(n2)CCC3)ccc1N1CCCC1 [B118]	7.6e-08 M
COc1cccc(C(=O)NCc2cc(-c3cn4c(n3)CCC4)ccc2Oc2ccccc2)c1 [B119]	1.8e-08 M
O=C(Cc1ccc(O)c(Cl)c1)NCc1cccc(-c2cn3c(n2)CCC3)c1 [B120]	2.32e-07 M
Cn1cc(CC(=O)NCc2cccc(-c3cn4c(n3)CCC4)c2)c2ccccc21 [B121]	2.78e-05 M
O=C(Cc1c[nH]c2ccccc12)NCc1cccc(-c2cn3c(n2)CCC3)c1 [B122]	2.64e-07 M
O=C(Cc1ccncc1)NCc1cccc(-c2cn3c(n2)CCC3)c1 [B123]	2.2e-08 M
CN(C)C(=O)CCC(=O)NCc1cccc(-c2cn3c(n2)CCC3)c1 [B124]	2.25e-07 M
O=C(Cc1ccc(Cl)c(Cl)c1)NCc1cc(-c2cn3c(n2)CCC3)ccc1Oc1ccccc1 [B125]	2.2e-07 M
COc1cccc(C(=O)NCc2cc(-c3cn4c(n3)CCC4)ccc2-c2ccccc2)c1 [B126]	5.7e-08 M
Cc1ccc(C(=O)NCc2cccc(-c3cn4c(n3)CCC4)c2)cc1C(F)(F)F [B130]	9.72e-07 M
O=C(Cc1cccc(Cl)c1)NCc1cccc(-c2cn3c(n2)CCC3)c1 [B133]	6e-06 M
O=C(Cc1cc(C(F)(F)F)cc(C(F)(F)F)c1)NCc1cccc(-c2cn3c(n2)CCC3)c1 [B134]	4.59e-06 M
O=C(Cc1ccc(Cl)nc1)NCc1cccc(-c2cn3c(n2)CCC3)c1 [B135]	8.7e-08 M
O=C(Cc1cccc(Br)c1)NCc1cccc(-c2cn3c(n2)CCC3)c1 [B136]	3.09e-07 M
O=C(Cc1cccc(OC(F)(F)F)c1)NCc1cccc(-c2cn3c(n2)CCC3)c1 [B137]	2.6e-08 M
COc1cccc(C(=O)NCc2cc(-c3cn4c(n3)CCC4)ccc2N2CCOCC2)c1 [B139]	1.84e-07 M
CC(=O)N1CCCC(CC(=O)NCc2cccc(-c3cn4c(n3)CCC4)c2)C1 (centres unmarked) [B140]	8.67e-07 M
CC(=O)N1CC(CC(=O)NCc2cccc(-c3cn4c(n3)CCC4)c2)C1 [B141]	1e-08 M
